Experimental data taken from PubChem BioAssay (NCI).
Several values for one entry are separate records, joined by “and”; a condition that tells them apart may be missing. Equal values may be shown once.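 48-hour exposure; five concentrations; linearly interpolated endpoints. Abbreviation: GI50, concentration required for 50% inhibition of growth. Definition used: TGI = concentration required for complete inhibition of growth.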

Columns and labels:
Test in all cases: NCI-60 cell line screen, 48 h
ACHN renal = system: ACHN renal
COLO 205 colon = system: COLO 205 colon
HOP-62 NSCLC = system: HOP-62 NSCLC
HS 578T breast = system: HS 578T breast
MDA-MB-231 breast = system: MDA-MB-231 breast
OVCAR-3 ovarian = system: OVCAR-3 ovarian
PC-3 prostate = system: PC-3 prostate
SN12C renal = system: SN12C renal
SR leukemia = system: SR leukemia
UACC-257 melanoma = system: UACC-257 melanoma

Compound	GI50 (ACHN renal)	TGI (ACHN renal) [µM]	GI50 (COLO 205 colon) [µM]	TGI (COLO 205 colon) [µM]	GI50 (HOP-62 NSCLC)	TGI (HOP-62 NSCLC) [µM]	GI50 (HS 578T breast) [µM]	TGI (HS 578T breast) [µM]	GI50 (MDA-MB-231 breast)	TGI (MDA-MB-231 breast) [µM]	GI50 (OVCAR-3 ovarian) [µM]	TGI (OVCAR-3 ovarian) [µM]	GI50 (PC-3 prostate) [µM]	TGI (PC-3 prostate) [µM]	GI50 (SN12C renal) [µM]	TGI (SN12C renal) [µM]	GI50 (SR leukemia) [µM]	TGI (SR leukemia) [µM]	GI50 (UACC-257 melanoma) [µM]	TGI (UACC-257 melanoma) [µM]
C1CC[N-]CC1.CC(=N\O)/C(C)=N/O.CC(=N\O)/C(C)=N/O.[CH2-]CCN1CCOCC1.[Co+2]	> 100 µM	> 100	> 100	> 100	> 100 µM	> 100	> 100	> 100	> 100 µM	> 100	> 100	> 100	> 100	> 100	> 100	> 100	6.1	> 100	98.1	> 100
COC(=O)[C@]12CC[C@@H](C)[C@H](C)[C@@H]1C1=CC[C@@H]3[C@@]4(C)CC(=O)[C@H](OC(=O)c5ccco5)[C@@]5(C)COC(=C45)C[C@@]3(C)[C@]1(C)CC2	2.94 µM	> 100	0.342	2.93	17.6 µM	> 100	> 100	> 100	5.11 µM	> 100	2.74	> 100	0.592	> 100			0.371	> 100	0.352	2.93
O=C(CCl)Nc1cc(O)c2c(c1)C(=O)c1cccc(O)c1C2=O	1.55 µM	2.98	1.55	3.35	1.71 µM	3.38	2.46	10.6	1.91 µM	5.88	1.23	2.49	1.57	3.95	0.68	1.98	0.346	2.86	2.52	6.41
O=C(Nc1ccc(I)cc1F)c1cc(I)ccc1O	1.69 µM	> 100	7.17	24	0.815 µM	3.4	0.617	3.95	0.639 µM	2.64	0.714	> 100	1.14	9.76	0.511		1.38	> 100	0.73	2.6
COc1cc([C@@H]2c3cc4c(cc3C(OC3O[C@@H]5COC(C)O[C@H]5[C@H](O)[C@H]3O)C3COC(=O)[C@@H]32)OCO4)cc(OC)c1O (some centres not stated)	1.27 µM	> 25	3.68	21.3	0.619 µM	2.97	1.97	> 31.8	7.25 µM	> 40.4	4.8	> 28	5.59	> 50	0.917	12.4	0.0276		2.12	> 50
CCOc1cc(C(C)(C)C)ccc1C1=N[C@@](C)(c2ccc(Cl)cc2)[C@@](C)(c2ccc(Cl)cc2)N1C(=O)N1CCN(CCS(C)(=O)=O)CC1	0.45 µM	2.56	2.03	4.01	2.86 µM	8.57	4.1	23.9	2.31 µM	7.61	3.14	9.33	2.01	6.25	3.31	12.8	0.198	5.26	1.1	3.72
O=S(=O)(O)ONC1=NCCN1	> 100 µM	> 100	> 100	> 100	> 100 µM	> 100	26.9	> 100	> 100 µM	> 100	> 100	> 100	> 100	> 100	> 100	> 100	> 100	> 100	> 100	> 100
CCCCCCNC(=O)Oc1ccc(/C(=C(\C)c2ccccc2)c2ccc(OCCN(CC)CC)cc2)cc1	5.99 µM	12.2	1.17	2.49	6.51 µM	13.4	2.92	11.7	5.08 µM	11.4	4.73	11.6	2.81	9.21	4.93	10.9	1.09	3.18	1.21	3.17
Cc1nnc(-c2ccc(-c3nc4ccccc4o3)cc2)o1	> 100 µM	> 100	76.8	> 100	42.8 µM	> 100	95.1	> 100	36.3 µM	> 100	> 100	> 100	34.7	> 100	> 100	> 100	25.8	68	34.7	90.7
Oc1c(CN2CCOCC2)cc(COCc2ccccc2)c2cccnc12	0.571 µM	> 100	16	67.2	1.48 µM	> 100	19.4	> 100	6.48 µM	> 100	2.49	> 100	7.34	> 100	5.29	> 100	0.681	17.9	2.58	7.84
N#Cc1c2c(c(-c3cccs3)n(C3OC(CO)C(O)C(O)C3O)c1=S)CCc1ccccc1-2 (configuration not stated)	13.8 µM and > 92.2 µM	> 100		> 100	14.9 µM and 38.5 µM	> 100		> 100	15.5 µM and 37.3 µM	> 100		> 100		> 100		> 100		> 100		> 100
CCCn1c(N)c(C(=O)CNc2ccc(I)cc2)c(=O)[nH]c1=O	8.69 µM	> 100		> 100	9.98 µM	> 100	17.4	> 100	24.5 µM	> 100	> 48.4	> 100	5.44	> 100	29.2	> 100	0.378	28.3		> 100
